Test results as given in the NIST ThermoML archive (doi:10.1021/je050399c).

Conditions: Fluid (supercritical or subcritical phases), Vibrating wire viscometry

N#N [nitrogen]
Conditions | viscosity [mPa·s]
348.15 K, 25007 kPa | 0.02543
348.15 K, 26007 kPa | 0.02571
348.15 K, 27005 kPa | 0.02598
348.15 K, 27995 kPa | 0.02628
348.15 K, 29000 kPa | 0.02655
348.15 K, 30021 kPa | 0.02687
348.15 K, 31015 kPa | 0.02717
348.15 K, 32013 kPa | 0.02747
348.15 K, 33000 kPa | 0.02776
348.15 K, 34013 kPa | 0.02808
348.15 K, 34919 kPa | 0.02833
373.15 K, 100.3 kPa | 0.02102
373.15 K, 200.1 kPa | 0.02106
373.15 K, 301 kPa | 0.02108
373.15 K, 400.2 kPa | 0.02109
373.15 K, 600.7 kPa | 0.0211
373.15 K, 800.6 kPa | 0.02112
373.15 K, 1000.5 kPa | 0.02114
373.15 K, 1501.2 kPa | 0.0212
373.15 K, 2002.1 kPa | 0.02125
373.15 K, 2501.4 kPa | 0.02131
373.15 K, 3003.5 kPa | 0.02137
373.15 K, 3503.3 kPa | 0.02144
373.15 K, 4010 kPa | 0.0215
373.15 K, 4501.6 kPa | 0.02157
373.15 K, 5007.4 kPa | 0.02164
373.15 K, 5504.7 kPa | 0.02172
373.15 K, 6000.6 kPa | 0.0218
373.15 K, 6507.4 kPa | 0.02188
373.15 K, 7006.9 kPa | 0.02194
373.15 K, 7500.7 kPa | 0.02203
373.15 K, 8002.7 kPa | 0.02211
373.15 K, 8504.3 kPa | 0.0222
373.15 K, 9002.1 kPa | 0.02228
373.15 K, 9499.1 kPa | 0.02238
373.15 K, 10010 kPa | 0.02247
373.15 K, 11006 kPa | 0.02267
373.15 K, 12000 kPa | 0.02284
373.15 K, 13002 kPa | 0.02307
373.15 K, 14010 kPa | 0.02327
373.15 K, 15013 kPa | 0.02348
373.15 K, 16013 kPa | 0.0237
373.15 K, 17018 kPa | 0.02392
373.15 K, 18001 kPa | 0.02414
373.15 K, 19005 kPa | 0.0244
373.15 K, 19977 kPa | 0.02462
373.15 K, 21015 kPa | 0.02487
373.15 K, 22011 kPa | 0.0251
373.15 K, 23004 kPa | 0.02536
373.15 K, 24005 kPa | 0.02559
373.15 K, 25012 kPa | 0.02584
373.15 K, 26006 kPa | 0.0261
373.15 K, 27007 kPa | 0.02635
373.15 K, 28017 kPa | 0.02662
373.15 K, 29005 kPa | 0.02688
373.15 K, 30003 kPa | 0.02714
373.15 K, 31001 kPa | 0.02741
373.15 K, 32010 kPa | 0.02765
373.15 K, 33011 kPa | 0.02792
373.15 K, 34006 kPa | 0.02821
373.15 K, 34834 kPa | 0.02844
398.15 K, 100.1 kPa | 0.02203
398.15 K, 200.9 kPa | 0.02207
398.15 K, 300.8 kPa | 0.02209
398.15 K, 400.5 kPa | 0.0221
398.15 K, 600.3 kPa | 0.02212
398.15 K, 800.5 kPa | 0.02213
398.15 K, 1001 kPa | 0.02215
398.15 K, 1501.8 kPa | 0.0222
398.15 K, 2001.3 kPa | 0.02225
398.15 K, 2495.8 kPa | 0.02231
398.15 K, 3000.7 kPa | 0.02236
398.15 K, 3501.8 kPa | 0.02242
398.15 K, 4002.8 kPa | 0.02247
398.15 K, 4503.1 kPa | 0.02254
398.15 K, 5003.7 kPa | 0.0226
398.15 K, 5502.6 kPa | 0.02266
398.15 K, 6004.9 kPa | 0.02273
398.15 K, 6501.8 kPa | 0.0228
398.15 K, 7005.3 kPa | 0.02287
398.15 K, 7507.1 kPa | 0.02294
398.15 K, 8007.6 kPa | 0.02302
398.15 K, 8501 kPa | 0.02311
398.15 K, 9010.3 kPa | 0.02317
398.15 K, 9506.9 kPa | 0.02324
398.15 K, 10005 kPa | 0.02334
398.15 K, 11003 kPa | 0.0235
398.15 K, 11989 kPa | 0.02369
398.15 K, 13002 kPa | 0.02386
398.15 K, 13997 kPa | 0.02405
398.15 K, 15013 kPa | 0.02423
398.15 K, 16005 kPa | 0.02443
398.15 K, 17010 kPa | 0.02463
398.15 K, 18010 kPa | 0.02482
398.15 K, 19003 kPa | 0.02503
398.15 K, 20019 kPa | 0.02525
398.15 K, 21009 kPa | 0.02546
398.15 K, 22011 kPa | 0.02568
398.15 K, 23034 kPa | 0.0259
398.15 K, 23993 kPa | 0.0261
398.15 K, 25001 kPa | 0.02634
398.15 K, 25977 kPa | 0.02657
398.15 K, 27031 kPa | 0.02679
398.15 K, 28028 kPa | 0.02703
398.15 K, 29028 kPa | 0.02728
398.15 K, 29911 kPa | 0.02747
398.15 K, 31023 kPa | 0.02773
398.15 K, 32013 kPa | 0.02796
398.15 K, 33034 kPa | 0.02822
398.15 K, 34043 kPa | 0.02845
398.15 K, 35040 kPa | 0.02872
423.15 K, 100.1 kPa | 0.02302
423.15 K, 200.1 kPa | 0.02305
423.15 K, 300.4 kPa | 0.02307
423.15 K, 400.1 kPa | 0.02309
423.15 K, 600.2 kPa | 0.0231
423.15 K, 800.3 kPa | 0.02312
423.15 K, 1001.1 kPa | 0.02313
423.15 K, 1502.5 kPa | 0.02318
423.15 K, 1997.8 kPa | 0.02322
423.15 K, 2498 kPa | 0.02327
423.15 K, 3002.3 kPa | 0.02332
423.15 K, 3505.8 kPa | 0.02337
423.15 K, 4004 kPa | 0.02342
423.15 K, 4501.2 kPa | 0.02348
423.15 K, 5002.7 kPa | 0.02353
423.15 K, 5502.8 kPa | 0.02358
423.15 K, 6002.2 kPa | 0.02365
423.15 K, 6502.3 kPa | 0.02372
423.15 K, 7003 kPa | 0.02377
423.15 K, 7497.9 kPa | 0.02384
423.15 K, 8004.2 kPa | 0.02391
423.15 K, 8503 kPa | 0.02398
423.15 K, 9004.2 kPa | 0.02405
423.15 K, 9504.3 kPa | 0.02412
423.15 K, 10006 kPa | 0.02418
423.15 K, 11004 kPa | 0.02434
423.15 K, 11994 kPa | 0.02451
423.15 K, 13002 kPa | 0.02466
423.15 K, 14011 kPa | 0.02483
423.15 K, 15002 kPa | 0.025
423.15 K, 16009 kPa | 0.02517
423.15 K, 17009 kPa | 0.02535
423.15 K, 17999 kPa | 0.02554
423.15 K, 19008 kPa | 0.02573
423.15 K, 20008 kPa | 0.02591
423.15 K, 20987 kPa | 0.02609
423.15 K, 22009 kPa | 0.0263
423.15 K, 23014 kPa | 0.02651
423.15 K, 24019 kPa | 0.02669
423.15 K, 25024 kPa | 0.02691
423.15 K, 26017 kPa | 0.02711
423.15 K, 27035 kPa | 0.02732
423.15 K, 28010 kPa | 0.02753
423.15 K, 29015 kPa | 0.02774
423.15 K, 30011 kPa | 0.02794
423.15 K, 31001 kPa | 0.02815
423.15 K, 31988 kPa | 0.02837
423.15 K, 32989 kPa | 0.02859
423.15 K, 34020 kPa | 0.02882
423.15 K, 35050 kPa | 0.02903
